# Values of other authors in patent publication US6471968B1, “Multifunctional nanodevice platform” (Regents of the University of Michigan, priority 2000, dated 2002).
# Tested on: solid tumor models
# Details: solid tumor models for which cisplatin has no effect
structure (smiles),measurement,value
N.N.[Cl][Pt][Cl] [cisplatin],in vivo activity in solid tumor models,no effect
